Literature values as cited in EP2566451B1, “PHARMACEUTICAL COMPOSITIONS COMPRISING CEFDITOREN PIVOXIL” (Bilgic, Mahmut, priority 2010, dated 2011).

Settings: in water; stated in the background section, approximately

- water solubility: less than 1 mg/ml
SMILES: CO/N=C(\C(=O)N[C@@H]1C(=O)N2C(C(=O)OCOC(=O)C(C)(C)C)=C(/C=C\c3scnc3C)CS[C@H]12)c1csc(N)n1 [Cefditoren pivoxil, (6R,7R)-pivaloyloxymethyl 7-[(Z)-2-(2-aminothiazol-4-yl)-2-(methoxyimino)acetamido]-3-[(Z)-2-(4-methylthiazol-5-yl)vinyl]-8-oxo-5-thia-1-azabicyclo[4.2.0]oct-2-ene-2-carboxylate]
